Here are results for 37 compounds from patent publication US7511068B2, “Mercaptoimidazoles as CCR2 receptor antagonists” (Janssen Pharmaceutica, N.V., priority 2003, dated 2009).

The structures appear in SMILES notation.

What is called melting point is the temperature of the solid-liquid transition. Broadly, the IC50 is the midpoint of a concentration-inhibition curve. Higher therefore signals weaker potency.

System in one series: not given
Assay: not given
Conditions: not given
Compound `CCC(c1ccc(Cl)c(Cl)c1)n1c(S)nc(C(=O)OC(C)(C)C)c1C#N` (centres unmarked) [Compound 78] registered a melting point of 172.7 to 175.2 °C.

For another series, the target named is T1, CCR2 receptor (Homo sapiens, UniProt P41597).
T1 construct: host or cells: THP-1 human monocytic cell line
T1 sequence (P41597 1-360 isoform P41597-2): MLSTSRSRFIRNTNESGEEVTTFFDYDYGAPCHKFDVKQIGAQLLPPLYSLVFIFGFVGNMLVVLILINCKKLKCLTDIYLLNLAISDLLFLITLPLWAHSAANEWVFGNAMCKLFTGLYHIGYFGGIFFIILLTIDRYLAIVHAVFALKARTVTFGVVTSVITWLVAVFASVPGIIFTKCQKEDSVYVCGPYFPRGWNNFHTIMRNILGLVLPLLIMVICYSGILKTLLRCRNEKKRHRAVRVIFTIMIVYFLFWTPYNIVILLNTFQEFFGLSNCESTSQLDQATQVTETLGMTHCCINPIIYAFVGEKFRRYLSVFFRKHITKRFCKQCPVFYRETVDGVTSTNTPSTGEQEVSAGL
As to the kind of experiment: Inhibition of MCP-1 induced Ca-flux in human THP-1 cells. The class given is cell-based. Conditions: inhibition of specific MCP-1 (10^-7 M hMCP-1) induced Ca2+ flux in human THP-1 cells; pIC50 = -log IC50 (molar). The procedure: C. Pharmacological Example Inhibition of MCP-1 Induced Ca-flux in Human THP-1 Cells
MCP-1 binding to the CCR2 receptor induces a rapid and transient intracellular release of Ca^2+ (secondary messenger) in several cell lines (Charo et al, PNAS 1994). Free Ca^2+ levels can be measured using a Ca^2+ sensitive dye. When the CCR2 receptor is blocked with a CCR2 receptor antagonist, the MCP-1 induced release of Ca^2+ is inhibited.
Human THP-1 cells (monocytic cell line, ATCC TIB-202) were cultured in RPMI 1640 medium supplemented with 10% fetal calf serum (FCS), 1% L-Glutamine, penicillin (50 U/ml) and streptomycin (50 μg/ml) (all GIBCO BRL, Gent). After centrifugation, cells were loaded for 30 minutes with the Ca^2+ sensitive fluorescent dye Fluo-3 AM (Molecular Probes, Leiden, Netherlands) (2 million cells/ml in RPMI medium containing 4 μM Fluo-3 AM, 20 mM HEPES, 0.1% Bovine Serum Albumin (BSA) and 5 mM probenecid). Excess dye was removed by 3-fold washing with buffer (5 mM HEPES, 140 mM NaCl, 1 mM MgCl2, 5 mM KCl, 10 mM glucose, 2.5 mM probenecid, 1.25 mM CaCl2, 0.1% BSA; all further incubations were done in this buffer). Cells were plated at a density of 150 000 cells/well in dark-wall 96-well plates (Costar, Cambridge, Mass.) and sedimented by centrifugation (1 minute). The cells were pre-incubated for 20 minutes with test compound. Then, 10^−7 M hMCP-1 (Bachem, Bubendorf, Switserland) was added. Changes in intracellular free Ca^2+ concentration were measured using the Fluorescent Imaging Plate Reader (FLIPR, Molecular Devices, Munchen, Germany). Fluorescence was recorded every second from 10 seconds before the addition of the MCP-1 till 2 minutes after the addition (first minute: 60 records with 1 second intervals, second minute 20 records with 3 second intervals).
The maximal fluorescence obtained during this time frame was used for further calculations.
Table 4 reports pIC50 values obtained in the above-described test for compounds of formula (I). pIC50 defines −log IC50 wherein IC50 is the molar concentration of the test compound which inhibits 50% of specific MCP-1 induced Ca^2+ flux.
Background: Calcium assays in cells follow changes in intracellular calcium, usually with a dye or a luminescent sensor.
For the compound `CCC(c1ccc(Cl)c(Cl)c1)n1c(S)nc(C(=O)OC(C)(C)C)c1C#N` (centres unmarked) [Compound 78], the midpoint of inhibition, the IC50, lay at 813 nM. On the same count and under the same terms, the value for `CCC(c1ccc(Cl)c(Cl)c1)n1c(S)nc(C(=O)NC)c1C(=O)OC` (centres unmarked) [Compound 87] was 33.1 nM; that for `CCC(c1ccc(Cl)c(Cl)c1)n1c(S)nc(C(=O)O)c1C#N` (centres unmarked) [Compound 88] was 174 nM; that for `CCC(c1ccc(Cl)c(Cl)c1)n1c(S)nc(COC)c1C(=O)OC` (centres unmarked) [Compound 89] was 107 nM. The same measure, in the same setting: the figure for `COC(=O)c1c(C(N)=O)[nH]c(=S)n1C(C)c1ccc(Cl)c(Cl)c1` (centres unmarked) [Compound 90] is 133 nM; for `CC(c1ccc(Cl)c(Cl)c1)n1cc(C(N)=O)[nH]c1=S` (centres unmarked) [Compound 91] it is 8130 nM. As for `COCC(c1ccc(Cl)c(Cl)c1)n1c(C(=O)OC)cnc1S` (centres unmarked) [Compound 94], the IC50 is 305 nM. `CCC(c1ccc(Cl)c(Cl)c1)n1c(C(=O)NN)c[nH]c1=S` (centres unmarked) [Compound 95]: the IC50 is 245 nM.

`CCC(c1ccc(Cl)c(Cl)c1)n1c(C(=O)OC)c(C(=O)NNC(C)=O)[nH]c1=S` (centres unmarked) [Compound 96]: the IC50 is 186 nM. Still for that read-out and setting: the figure for `CC(c1ccc(Cl)c(Cl)c1)n1c(C(N)=O)c(C(N)=O)[nH]c1=S` (centres unmarked) [Compound 98] is 2040 nM. The same measure, in the same setting: the value for `CCC(c1ccc(C)c(C)c1)n1c(C(=O)OC)c(C(=O)OC)[nH]c1=S` (centres unmarked) [Compound 99] was 343 nM; that for `COCC(c1ccc(Cl)c(Cl)c1)n1c(C(=O)OC)c(C(=O)OC)[nH]c1=S` (centres unmarked) [Compound 100] was 32.4 nM; that for `COCC(c1ccc(Cl)c(Cl)c1)n1c(C(N)=O)c[nH]c1=S` (centres unmarked) [Compound 104] was 85.7 nM. Same read-out and setting: the figure for `CCC(c1ccc(Cl)c(Cl)c1)n1c(C(=O)NCCO)c[nH]c1=S` (centres unmarked) [Compound 105] is 130 nM; for `CCC(c1ccc(Cl)c(Cl)c1)n1c(C(=O)N(C)OC)c[nH]c1=S` (centres unmarked) [Compound 106] it is 1780 nM. Take `CCC(c1ccc(Cl)c(Cl)c1)n1c(S)nc(C(=O)NC)c1C(=O)NC` (centres unmarked) [Compound 107]: it took 355 nM to reach half-maximal inhibition (IC50).

In the case of `CCC(c1ccc(Cl)c(Cl)c1)n1c(C(=O)OC)c(C(=O)N2CCCCC2)[nH]c1=S` (centres unmarked) [Compound 108], the IC50 is 112 nM.

Compound `CCC(c1ccc(Cl)c(Cl)c1)n1c(C(=O)OC)c(C(=O)N2CCOCC2)[nH]c1=S` (centres unmarked) [Compound 109] gave an IC50 of 1150 nM. The same measure, in the same setting: the figure for `CCC(c1ccc(Cl)c(Cl)c1)n1c(C(=O)OC)c(C(=O)NCCO)[nH]c1=S` (centres unmarked) [Compound 110] is 112 nM; for `CCC(c1ccc(Cl)c(Cl)c1)n1c(C(N)=O)c(COC)[nH]c1=S` (centres unmarked) [Compound 113] it is 240 nM; for `CCC(c1ccc(Cl)c(Cl)c1)n1c(C(=O)NC)c(COC)[nH]c1=S` (centres unmarked) [Compound 114] it is 1780 nM. The same measure, in the same setting: the figure for `CCC(c1ccc(Cl)c(Cl)c1)n1c(C(=O)NCCO)c(COC)[nH]c1=S` (centres unmarked) [Compound 115] is 1200 nM.

Regarding `CCC(c1cc(F)cc(F)c1)n1c(C(=O)OC)cnc1S` (centres unmarked) [Compound 118], the IC50 was 8320 nM. In the case of `CCC(c1ccc(Cl)c(Cl)c1)n1c(C(=O)NNC(C)=O)c[nH]c1=S` (centres unmarked) [Compound 119], the IC50 is 871 nM. Against the preceding compound, the IC50 is about 9.6-fold lower. Still for that read-out and setting: the value for `CCC(c1ccc(Cl)c(Cl)c1)n1c(C(=O)NNC=O)c[nH]c1=S` (centres unmarked) [Compound 120] was 1050 nM.

On to `CCC(c1ccc(Cl)cc1)n1c(C(=O)OC)cnc1S` (centres unmarked) [Compound 123], for which the IC50 was 4680 nM. Compared with the last compound, the IC50 is about 4.5-fold higher. Same read-out and setting: the figure for `CCC(c1cc(F)cc(F)c1)n1c(C(=O)OC)c(C(=O)OC)[nH]c1=S` (centres unmarked) [Compound 124] is 64.6 nM; for `CCC(c1cc(Cl)cc(Cl)c1)n1c(C(=O)OC)c(C(=O)OC)[nH]c1=S` (centres unmarked) [Compound 130] it is 1660 nM; for `CCC(c1cc(F)c(F)c(F)c1)n1c(C(=O)OC)c[nH]c1=S` (centres unmarked) [Compound 135] it is 4270 nM. Same read-out and setting: the value for `CCC(c1ccc(F)c(F)c1)n1c(C(=O)OC)c(C(=O)OC(C)(C)C)[nH]c1=S` (centres unmarked) [Compound 137] was 2510 nM; that for `CCC(c1ccc(Br)c(Br)c1)n1c(C(N)=O)c[nH]c1=S` (centres unmarked) [Compound 138] was 176 nM; that for `CCC(c1ccc(F)c(F)c1)n1c(C(=O)OC)c(C(N)=O)[nH]c1=S` (centres unmarked) [Compound 142] was 58.9 nM. `CCC(c1cc(F)c(F)c(F)c1)n1c(C(N)=O)c[nH]c1=S` (centres unmarked) [Compound 143] had a 50% inhibitory concentration (IC50) of 166 nM. This IC50 is about 2.8-fold higher than that of the compound before.

Turning to `CCC(c1cc(F)c(F)c(F)c1)n1c(C(=O)OC)c(C(=O)OC)[nH]c1=S` (centres unmarked) [Compound 148], 33.5 nM corresponded to half-maximal inhibition (IC50). On the same count and under the same terms, the figure for `CCCC(c1ccc(Cl)c(Cl)c1)n1c(C(=O)OC)c(C(N)=O)[nH]c1=S` (centres unmarked) [Compound 149] is 32.4 nM; for `COC(=O)c1[nH]c(=S)n(C(c2ccc(Cl)c(Cl)c2)c2ccc(Cl)c(Cl)c2)c1C(=O)OC` [Compound 150] it is 468 nM; for `CCC(=O)c1c[nH]c(=S)n1C(CC)c1ccc(Cl)c(Cl)c1` (centres unmarked) [Compound 151] it is 299 nM.
